In US9006235B2, “Inhibitors of human immunodeficiency virus replication” (priority 2012, dated 2015):
Read-outs that look alike come from different tables or passages of the source.

Tested on: recombinant NL-Rluc virus
Test: Inhibition of HIV replication (NL-Rluc virus, luciferase readout in MT-2 cells)
Assay type: cell-based
Settings: Human immunodeficiency virus 1, MT2, 120 h

SMILES | EC50 | EC50 (read-out: Activity)
Cc1nc2cc(NCCC(F)(F)F)nn2c(-c2cc(F)c3c(c2C)CCCO3)c1[C@H](OC(C)(C)C)C(=O)O [Example 48, (2S)-2-(tert-butoxy)-2-(7-(8-fluoro-5-methylchroman-6-yl)-5-methyl-2-((3,3,3-trifluoropropyl)amino)pyrazolo[1,5-a]pyrimidin-6-yl)acetic acid] | 340 nM | 100 to 1000 nM
COc1ccc(C(=O)Nc2cc3nc(C)c([C@H](OC(C)(C)C)C(=O)O)c(-c4cc(F)c5c(c4C)CCCO5)n3n2)cc1OC [Example 15, (2S)-2-tert-butoxy-2-(2-(3,4-dimethoxybenzamido)-7-(8-fluoro-5-methylchroman-6-yl)-5-methylpyrazolo[1,5-a]pyrimidin-6-yl)acetic acid] | 260 nM | 100 to 1000 nM
Cc1nc2cc(NC(=O)CCCOc3ccccc3)nn2c(-c2cc(F)c3c(c2C)CCCO3)c1[C@H](OC(C)(C)C)C(=O)O [Example 27, (2S)-2-tert-butoxy-2-(7-(8-fluoro-5-methylchroman-6-yl)-5-methyl-2-(4-phenoxybutanamido)pyrazolo[1,5-a]pyrimidin-6-yl)acetic acid] | – | 100 to 1000 nM
Cc1nc2cc(N(CCC(C)C)CCC(C)C)nn2c(-c2cc(F)c3c(c2C)CCCO3)c1[C@H](OC(C)(C)C)C(=O)O [Example 44, (2S)-2-(tert-butoxy)-2-(2-(diisopentylamino)-7-(8-fluoro-5-methylchroman-6-yl)-5-methylpyrazolo[1,5-a]pyrimidin-6-yl)acetic acid] | 1600 nM | > 1000 nM
Cc1nc2cc(NCCc3ccccc3)nn2c(-c2cc(F)c3c(c2C)CCCO3)c1[C@H](OC(C)(C)C)C(=O)O [Example 39, (2S)-2-(tert-butoxy)-2-(7-(8-fluoro-5-methylchroman-6-yl)-5-methyl-2-(phenethylamino)pyrazolo[1,5-a]pyrimidin-6-yl)acetic acid] | – | < 100 nM
